Earlier results, collected in US20230383297A1, “NOVEL TARGETS FOR REACTIVATION OF PRADER-WILLI SYNDROME-ASSOCIATED GENES” (Duke University, priority 2020, published 2023).

Tested on: PWS cells
Conditions: also causes DNA demethylation genome-wide

## Nc1ncn([C@H]2C[C@H](O)[C@@H](CO)O2)c(=O)n1 [5-Aza-DC]
  maternal gene expression from the PWS locus: reactivate maternal gene expression from the PWS locus
